From patent US6372774B1, “Derivatives of N-phenylpyrazoles” (Rhone-Poulenc Agriculture Ltd., priority 1985, dated 2002)
Read-outs that look alike come from different tables or passages of the source.

How the values were obtained:
[1] = system: Plutella xylostella (Diamond-back Moth); test: whole plant or invertebrate; format: in vivo; conditions: foliar; for mortality at 500 ppm: read-out: mortality of larvae of Plutella xylostella; for pest or weed control at 500 ppm: read-out: Plutella % m 500 ppm
Source text: (§1) One or more dilutions of the compounds to be tested were made in 50% aqueous acetone.
(§2) a) Test species: Plutella xylostella (Diamond-back Moth) and Phaedon cochleariae (Mustard Beetle)
(§3) Turnip leaf discs were set in agar in petri-dishes and infected with 10 larvae (2nd instar Plutella or 3rd instar Phaedon). Four replicate dishes were assigned to each treatment and were sprayed under a Potter Tower with the appropriate test dilution. Four or five days after treatment the dishes were removed from the constant temperature (25° C.) room in which they had been held and the mean percentage mortalities of larvae were determined.

[2] = system: Phaedon cochleariae (Mustard Beetle); test: Test 3 a): leaf disc spray test, Phaedon cochleariae larvae; format: in vivo; conditions: for pest or weed control at 10 ppm / mortality at 5 ppm: Phaedon cochleariae, foliar; for pest or weed control at 10 ppm: read-out: Phaedon % m 10 ppm; for mortality at 5 ppm: read-out: mortality of larvae of Phaedon cochleariae
Source text: as §1, §2, §3

[3] = Test 3 method (a), application of 500 ppm

| SMILES | mortality at 500 ppm [1] [%] | pest or weed control at 10 ppm [2] [%] | other results |
| --- | --- | --- | --- |
| N#Cc1c(I)nn(-c2c(Cl)cc(C(F)(F)F)cc2Cl)c1N [Compound 116, 5-Amino-3-iodo-4-cyano-1-(2,6-dichloro-4-trifluoromethylphenyl)pyrazole] | 100 | 93 | – |
| CS(=O)(=O)c1c(C(F)(F)F)nn(-c2c(Cl)cc(C(F)(F)F)cc2Cl)c1N [Compound 130, 5-Amino-1-(2,6-dichloro-4-trifluoromethylphenyl)-4-methanesulphonyl-3-trifluoromethylpyrazole] | 100 | 100 | – |
| NC(=O)c1c(C(F)(F)F)nn(-c2c(Cl)cc(C(F)(F)F)cc2Cl)c1N [Compound 131, 5-Amino-4-carbamoyl-1-(2,6-dichloro-4-trifluoromethylphenyl)-3-trifluoromethylpyrazole] | – | 100 | pest or weed control at 500 ppm [1]: 58% |
| COC(=O)c1c(C(F)(F)F)nn(-c2c(Cl)cc(C(F)(F)F)cc2Cl)c1N [Compound 132, 5-Amino-1-(2,6-dichloro-4-trifluoromethylphenyl)-4-methoxycarbonyl-3-trifluoromethylpyrazole] | – | 100 | pest or weed control at 500 ppm [1]: 10% |
| CN(C)c1c(C#N)c(C(F)(F)F)nn1-c1c(Cl)cc(C(F)(F)F)cc1Cl [Compound 136, 4-Cyano-1-(2,6-dichloro-4-trifluoromethylphenyl)-5-dimethylamino-3-trifluoromethylpyrazole] | 100 | 56 | – |
| CCOC(=O)CNc1c(C#N)c(C(F)(F)F)nn1-c1c(Cl)cc(C(F)(F)F)cc1Cl [Compound 137, 4-Cyano-1-(2,6-dichloro-4-trifluoromethylphenyl)-5-ethoxycarbonylmethylamino-3-trifluoromethylpyrazole] | – | 100 | pest or weed control at 500 ppm [1]: 48% |
| CNc1c(C#N)c(C(F)(F)F)nn1-c1c(Cl)cc(C(F)(F)F)cc1Cl [Compound 138, 4-Cyano-5-methylamino-1-(2,6-dichloro-4-trifluoromethylphenyl)-3-trifluoromethylpyrazole] | 100 | 100 | – |
| CC(C)(C)C(=O)Nc1c(C#N)c(C(F)(F)F)nn1-c1c(Cl)cc(C(F)(F)F)cc1Cl [Compound 139, 4-Cyano-1-(2,6-dichloro-4-trifluoromethylphenyl)-5-(2,2-dimethylpropionamido)-3-trifluoromethylpyrazole] | 100 | 16 | – |
| Nc1c(Br)c(C(F)(F)F)nn1-c1c(Cl)cc(C(F)(F)F)cc1Cl [Compound 140, 5-Amino-4-bromo-1-(2,6-dichloro-4-trifluoromethylphenyl)-3-trifluoromethylpyrazole] | 100 | 84 | – |
| N#Cc1c(C(F)(F)F)nn(-c2c(Cl)cc(C(F)(F)F)cc2Cl)c1Br [Compound 141, 5-Bromo-4-cyano-1-(2,6-dichloro-4-trifluoromethylphenyl)-3-trifluoromethylpyrazole] | – | 100 | pest or weed control at 500 ppm [1]: 44% |
| Nc1c([N+](=O)[O-])c(C(F)(F)F)nn1-c1c(Cl)cc(C(F)(F)F)cc1Cl [Compound 143, 5-Amino-1-(2,6-dichloro-4-trifluoromethylphenyl)-4-nitro-3-trifluoromethylpyrazole] | 100 | 100 | – |
| CCOC(=O)N(C(=O)OCC)c1c(C#N)c(C(F)(F)F)nn1-c1c(Cl)cc(C(F)(F)F)cc1Cl [Compound 145, 4-Cyano-1-(2,6-dichloro-4-trifluoromethylphenyl)-5-bis(ethoxycarbonyl)amino-3-trifluoromethylpyrazole] | – | 100 | mortality at 500 ppm [1, 3]: 100% |
| N#Cc1c(C(F)(F)F)nn(-c2c(Cl)cc(C(F)(F)F)cc2Cl)c1N(C(=O)C1CC1)C(=O)C1CC1 [Compound 146, 4-Cyano-1-(2,6-dichloro-4-trifluoromethylphenyl)-5-bis(cyclopropanecarbonyl)amino-3-trifluoromethylpyrazole] | 100 | 85 | – |
| N#Cc1c(C(F)(F)F)nn(-c2c(Cl)cc(C(F)(F)F)cc2Cl)c1NC(=O)C1CC1 [Compound 147, 4-Cyano-1-(2,6-dichloro-4-trifluoromethylphenyl)-5-cyclopropanecarbonamido-3-trifluoromethylpyrazole] | – | – | Phaedon % m 10 ppm ([2]; Tables 1-3, % mortality at 10 ppm): 100% |
| Nc1c(Cl)c(C(F)(F)F)nn1-c1c(Cl)cc(C(F)(F)F)cc1Cl [Compound 148, 5-Amino-4-chloro-1-(2,6-dichloro-4-trifluoromethylphenyl)-3-trifluoromethylpyrazole] | – | 21 | pest or weed control at 500 ppm [1]: 98% |
| CCOC(=O)Nc1c(C#N)c(C(F)(F)F)nn1-c1c(Cl)cc(C(F)(F)F)cc1Cl [Compound 149, 4-Cyano-1-(2,6-dichloro-4-trifluoromethylphenyl)-5-ethoxycarbonylamino-3-trifluoromethylpyrazole] | – | 100 | mortality at 500 ppm [1, 3]: 100% |

| SMILES | mortality at 500 ppm [1] [%] | pest or weed control at 10 ppm [2] [%] | other results |
| --- | --- | --- | --- |
| CC(=O)N(C(=O)C(C)(C)C)c1c(C#N)c(C(F)(F)F)nn1-c1c(Cl)cc(C(F)(F)F)cc1Cl [Compound 176, 4-Cyano-1-(2,6-dichloro-4-trifluoromethylphenyl)-5-(N-acetyl-N-trimethylacetylamino)-3-trifluoromethylpyrazole] | 100 | – | – |
| CCC(=O)N(C(=O)C(C)(C)C)c1c(C#N)c(C(F)(F)F)nn1-c1c(Cl)cc(C(F)(F)F)cc1Cl [Compound 177, 4-Cyano-1-(2,6-dichloro-4-trifluoromethylphenyl)-5-(N-propionyl-N-trimethylacetylamino)-3-trifluoromethylpyrazole] | 100 | – | – |
| CC(C)(C)C(=O)Nc1c(C#N)c(Cl)nn1-c1c(Cl)cc(C(F)(F)F)cc1Cl [Compound 180, 3-Chloro-1-(2,6-dichloro-4-trifluoromethylphenyl)-4-cyano-5-trimethylacetylaminopyrazole] | 100 | – | – |
| CCOC(=O)N(C(=O)OCC)c1c(C#N)c(Cl)nn1-c1c(Cl)cc(C(F)(F)F)cc1Cl [Compound 181, 3-Chloro-1-(2,6-dichloro-4-trifluoromethylphenyl)-4-cyano-5-bis(ethoxycarbonyl)aminopyrazole] | 100 | – | – |
| CCOC(=O)Nc1c(C#N)c(Cl)nn1-c1c(Cl)cc(C(F)(F)F)cc1Cl [Compound 182, 3-Chloro-1-(2,6-dichloro-4-trifluoromethylphenyl)-4-cyano-5-ethoxycarbonylaminopyrazole] | – | – | mortality at 5 ppm [2]: 100% |
| CCOC(=O)N(C(C)=O)c1c(C#N)c(C(F)(F)F)nn1-c1c(Cl)cc(C(F)(F)F)cc1Cl [Compound 184, 5-(N-Acetyl-N-ethoxycarbonylamino)-4-cyano-1-(2,6-dichloro-4-trifluoromethylphenyl)-3-trifluoromethylpyrazole] | 100 | – | – |
| Nc1c(I)c(C(F)(F)F)nn1-c1c(Cl)cc(C(F)(F)F)cc1Cl [Compound 189, 5-Amino-1-(2,6-dichloro-4-trifluoromethylphenyl)-4-iodo-3-trifluoromethylpyrazole] | 100 | – | – |
| N#Cc1cn(-c2c(Cl)cc(C(F)(F)F)cc2Cl)nc1F [Compound 195, 4-Cyano-1-(2,6-dichloro-4-trifluoromethylphenyl)-3-fluoropyrazole] | 100 | – | – |
| CCNS(=O)(=O)c1c(C(F)(F)F)nn(-c2c(Cl)cc(C(F)(F)F)cc2Cl)c1N [Compound 198, 5-Amino-1-(2,6-dichloro-4-trifluoromethylphenyl)-4-(N-ethylsulphamoyl)-3-trifluoromethylpyrazole] | – | – | mortality at 5 ppm [2]: 100% |
| CNS(=O)(=O)c1c(C(F)(F)F)nn(-c2c(Cl)cc(C(F)(F)F)cc2Cl)c1N [Compound 199, 5-Amino-1-(2,6-dichloro-4-trifluoromethylphenyl)-4-(N-methylsulphamoyl)-3-trifluoromethylpyrazole] | – | – | mortality at 5 ppm [2]: 100% |
| N#Cc1c(F)nn(-c2c(Cl)cc(C(F)(F)F)cc2Cl)c1N [Compound 202, 5-Amino-1-(2,6-dichloro-4-trifluoromethylphenyl)-4-cyano-3-fluoropyrazole] | 100 | – | – |
| C[Si](C)(C)c1c(C#N)c(C(F)(F)F)nn1-c1c(Cl)cc(C(F)(F)F)cc1Cl [Compound 205, 4-Cyano-1-(2,6-dichloro-4-trifluoromethylphenyl)-3-trifluoromethyl-5-trimethylsilylpyrazole] | – | – | mortality at 5 ppm [2]: 100% |
| C[Si](C)(C)Cc1c(C#N)c(C(F)(F)F)nn1-c1c(Cl)cc(C(F)(F)F)cc1Cl [Compound 211, 4-Cyano-1-(2,6-dichloro-4-trifluoromethylphenyl)-3-trifluoromethyl-5-trimethylsilylmethylpyrazole] | 100 | – | – |
| N#Cc1c(C(F)(F)F)nn(-c2c(Cl)cc(C(F)(F)F)cc2Cl)c1C#N [Compound 213, 1-(2,6-Dichloro-4-trifluoromethylphenyl)-4,5-dicyano-3-trifluoromethylpyrazole] | 100 | – | – |
| C[S+]([O-])c1c(C#N)c(C(F)(F)F)nn1-c1c(Cl)cc(C(F)(F)F)cc1Cl (centres unmarked) [Compound 220, 4-Cyano-1-(2,6-dichloro-4-trifluoromethylphenyl)-5-methylsulphinyl-3-trifluoromethylpyrazole] | – | – | mortality at 5 ppm [2]: 100% |
| CCS(=O)(=O)c1c(C(F)(F)F)nn(-c2c(Cl)cc(C(F)(F)F)cc2Cl)c1N [Compound 221, 5-Amino-1-(2,6-dichloro-4-trifluoromethylphenyl)-4-ethylsulphonyl-3-trifluoromethylpyrazole] | – | – | mortality at 5 ppm [2]: 100% |
